The record followed here is patent US20100184703A1, “USE OF PEPTIDE DERIVATIVES FOR TREATING PATHOLOGIES RESULTING FROM ISCHEMIA” (CHIESI FARMACEUTICI S.p.A., priority 2007, published 2010).

For this test, the system named is caspase-3. The test can be described thus: Dosage of caspase-3 activity in myocardial tissue, chronic ischemia (PMI) model. The class given is in vivo, rat. To be noted: PMI 72 h. The method, then:
The analyses were performed on 2 myocardial ischemia models: a chronic ischemia model and an acute ischemia model, followed by myocardial reperfusion after 30 min of occlusion.
Said models were realized with Wistar male rats (180-220 g). The coronary artery was ligatured according to Pfeffer et al protocol.
Briefly, the rats were anaesthetized by intraperitoneal administration of a mixture of Ketamine (150 mg/kg) and Xylazine (15 mg/kg), then intubated and mechanically ventilated. The animals were submitted to a left and median thoracotomy. An occlusion of the coronary artery was done with a silk wire (size: 7.0) at the more proximal point and below the auricle.
In the case of chronic ischemia, the ligature was maintained and the rib cage of the animal reclosed (PMI model for post myocardial infarction).
The animals were sacrificed by a pentobarbital lethal injection. […]
The supernatant was taken and divided into 2 tubes for of each sample. The tubes were placed at −80° C. before performing the spectrophotometric proteic dosage (BCA: cupper (II) sulphate+solution A of bicinchronic acid, DO measured at 550 nm) in transparent, with flat bottom, 96-well plates. […]

Peptide text beside a SMILES is read from it. * marks the point of attachment. X1 = COC(=O)CC(N*)C(=O)COc1c(F)cccc1F; Quinaldoyl = O=C(c1ccc2ccccc2n1)*

Turning to `COC(=O)CC(NC(=O)[C@H](C)NC(=O)[C@@H](NC(=O)[C@H](CC(=O)OC)NC(=O)[C@@H](NC(=O)c1ccc2ccccc2n1)C(C)C)C(C)C)C(=O)COc1c(F)cccc1F` (stereo partly drawn) [D1, (3S,6S,9S,12S)-methyl 15-(2-(2,6-difluorophenoxy)acetyl)-3,9-diisopropyl-6-(2-methoxy-2-oxoethyl)-12-methyl-1,4,7,10,13-pentaoxo-1-(quinolin-2-yl)-2,5,8,11,14-pentaazaheptadecan-17-oate] (Quinaldoyl-VD(OMe)VA-X1), where the note is “pre-treated rats, 0.01 or 1 mg/kg”, the caspase-3 activity result is “inhibition of the caspase-3 activity”. Further, the caspase-3 basal activity result (right ventricular (RV)) was “weak inhibition”.
